Measured values published in patent publication US20250002450A1, “CATIONIC STEROID COMPOUNDS, METHOD OF OBTAINING THEREOF, FORMULATIONS COMPRISING THEREOF AND THEIR USES” (UNIVERSIDADE DO PORTO, priority 2021, published 2025).
≈ marks a conversion by molar mass, not a printed value.

Columns and labels:
[1] = tested on: E. coli 2252 (COL-resistant); assay: Antibacterial MIC/MBC (broth microdilution); assay type: cell-based, Escherichia coli; details: Escherichia coli, E. coli 2252 (COL-resistant); for MBC: read-out: MBC; for MIC: read-out: MIC
Text: (§1) Twelve reference bacterial strains and nine MDR clinically relevant bacterial strains were used in this study. Gram-negative bacteria comprised reference strains E. coli ATCC 25922, K. pneumoniae ATCC 13883, Salmonella enterica serovar Typhimurium CECT 443, P. aeruginosa ATCC 27853, A. baumannii ATCC 19606, C. jejuni ATCC 33560 (ATCC—American Type Culture Collection; CECT—Colección Espanola de Cultivos Tipo); clinical isolates E. coli SA/2, an extended-spectrum β-lactamase (ESBL)-producing strain and P. aeruginosa 33b, a pan-drug-resistant isolate; and animal isolates C. jejuni P5/4, a ciprofloxacin-resistant strain, C. jejuni 4432, C. jejuni 4433, C. jejuni 4448, and E. coli 2252, a COL-resistant strain [42]. Gram-positive strains included S. aureus ATCC 29213, E. faecalis ATCC 29212, S. pyogenes ATCC 19615, and environmental isolates methicillin-resistant S. aureus (MRSA) 66/1 [43], and VAN-resistant enterococci (VRE) E. faecalis B3/101 [44]. Gram-negative fish pathogens Yersinia ruckeri ATCC 29473, Listonella anguillarum ATCC 1924, and Tenacibaculum maritimum ATCC 43397 were also included.
(§2) Strains were kept in Trypto-Casein Soy agar (TSA—Biokar Diagnostics, Allone, Beauvais, France) slants and, before each assay, were sub-cultured in Mueller-Hinton agar (MHA—Biokar Diagnostics, Allone, Beauvais, France). Y. ruckeri ATCC 29473 and L. anguillarum ATCC 1924 were kept in Nutrient Agar (Condalab, Madrid, Spain) and T. maritimum ATCC 43397 was kept in TMM agar (Condalab, Madrid, Spain), and were sub-cultured in the respective culture media before each assay. For S. pyogenes ATCC 19615, CAMHB was supplemented with 3.75% lysed horse blood (LBH—Oxoid, Basingstoke, England), whereas for C. jejuni it was supplemented with 2.5% LHB. Colony-forming unit counts of the inoculum were conducted to determine the initial inoculum size (which should be approximately 5×10^5 CFU/mL). Sterility and growth controls were included in each assay. The 96-well U-shaped untreated polystyrene microtiter plates were incubated for 20 h at 37 degrees C. (42 degrees C. for C. jejuni, in a microaerophilic atmosphere) and the minimal inhibitory concentration (MIC) was determined as the lowest concentration of compound that prevented visible growth. The minimal bactericidal concentration (MBC) was determined by spreading 100 μL of the content of the wells with no visible growth on MH plates. The MBC was determined as the lowest concentration of compound that killed 99.9% of the initial inoculum after overnight incubation at 37 degrees C. Two independent assays were performed for reference and MDR strains.
(§3) An initial screening of the antibacterial activity of the compounds was performed by the Kirby-Bauer disk diffusion method, as recommended by the Clinical and Laboratory Standards Institute (CLSI). Briefly, sterile 6 mm blank paper disks (Oxoid, Basingstoke, England) impregnated with 15 μg of each compound were placed on inoculated MH agar plates. A blank disk with dimethylsulfoxide (DMSO) was used as a negative control. MH inoculated plates were incubated for 18-20 h at 37 degrees C. At the end of incubation, the inhibition halos where measured. The MIC was used to determine the antibacterial activity of each compound, in accordance with the recommendations of the CLSI. Two-fold serial dilutions of the compounds were prepared in Mueller-Hinton Broth 2 (MHB2—Sigma-Aldrich, St. Louis, MO, USA) within the concentration range of 0.062-64 μg/mL. CTX ranging between 0.031-16 μg/mL was used as a control. Sterility and growth controls were included in each assay. Purity checks and colony counts of the inoculum suspensions were also performed in order to ensure that the final inoculum density closely approximates the intended number (5×10^5 CFU/mL). The MIC was determined as the lowest concentration of compound that inhibited growth of the bacteria. The MBC was assessed by spreading 10 μL of culture collected from wells showing no visible growth on MH agar plates. […]

[2] = tested on: E. coli SA/2 (ESBL); assay: Antibacterial MIC/MBC (broth microdilution); assay type: cell-based, Escherichia coli; details: Escherichia coli
Text: as §1, §2, §3

[3] = tested on: P. aeruginosa 33b (PDR); assay: Antibacterial MIC/MBC (broth microdilution); assay type: cell-based, Pseudomonas aeruginosa; details: Pseudomonas aeruginosa, P. aeruginosa 33b (PDR); for MBC: read-out: MBC; for MIC: read-out: MIC
Text: as §1, §2, §3

[4] = tested on: Acinetobacter baumannii ATCC 19606; assay: Antibacterial MIC/MBC (broth microdilution); assay type: cell-based; details: for MBC / MIC: ATCC19606, Acinetobacter baumannii ATCC 19606; for MBC: read-out: MBC; for MIC: read-out: MIC
Text: as §1, §2, §3

[5] = tested on: Listonella anguilarum ATCC 1924; assay: Antibacterial MIC/MBC (broth microdilution); assay type: cell-based; details: for MBC / MIC: Listonella anguilarum ATCC 1924; for MBC: read-out: MBC; for MIC: read-out: MIC
Text: as §1, §2, §3

[6] = tested on: Staphylococcus aureus ATCC 29213; assay: Antibacterial MIC/MBC (broth microdilution); assay type: cell-based; details: for MBC: ATCC29213, read-out: MBC; for MIC: ATCC29213, read-out: MIC
Text: as §1, §2, §3

[7] = tested on: Yersinia ruckeri ATCC 29473; assay: Antibacterial MIC/MBC (broth microdilution); assay type: cell-based; details: for MBC: ATCC29473, read-out: MBC; for MIC: ATCC29473, read-out: MIC
Text: as §1, §2, §3

[8] = tested on: C. jejuni 4432; assay: Antibacterial MIC/MBC (broth microdilution); assay type: cell-based, Campylobacter jejuni; details: Campylobacter jejuni; for MBC: read-out: MBC; for MIC: read-out: MIC
Text: as §1, §2, §3

[9] = tested on: C. jejuni 4433; assay: Antibacterial MIC/MBC (broth microdilution); assay type: cell-based, Campylobacter jejuni; details: Campylobacter jejuni; for MBC: read-out: MBC; for MIC: read-out: MIC
Text: as §1, §2, §3

[10] = tested on: C. jejuni 4448; assay: Antibacterial MIC/MBC (broth microdilution); assay type: cell-based, Campylobacter jejuni; details: Campylobacter jejuni; for MBC: read-out: MBC; for MIC: read-out: MIC
Text: as §1, §2, §3

[11] = tested on: C. jejuni P5/4; assay: Antibacterial MIC/MBC (broth microdilution); assay type: cell-based, Campylobacter jejuni; details: Campylobacter jejuni; for MBC: read-out: MBC; for MIC: read-out: MIC
Text: as §1, §2, §3

[12] = tested on: Tenacibaculum maritimum ATCC 43397; assay: Antibacterial disk diffusion; assay type: cell-based; details: Tenacibaculum maritimum ATCC 43397, footnote *
Text: as §1, §2, §3

[13] = tested on: S. aureus 66/1 (MRSA); assay: Antibacterial MIC/MBC (broth microdilution); assay type: cell-based, Staphylococcus aureus; details: Staphylococcus aureus; for MBC: read-out: MBC; for MIC: read-out: MIC
Text: as §1, §2, §3

[14] = tested on: E. faecalis B3/101 (VRE); assay: Antibacterial MIC/MBC (broth microdilution); assay type: cell-based, Enterococcus faecalis; details: Enterococcus faecalis, E. faecalis B3/101 (VRE); for MBC: read-out: MBC; for MIC: read-out: MIC
Text: as §1, §2, §3

[15] = tested on: Enterococcuss faecalis ATCC 29212; assay: Antibacterial MIC/MBC (broth microdilution); assay type: cell-based, Enterococcus faecalis; details: for MBC / MIC: Enterococcus faecalis, ATCC29212, Enterococcuss faecalis ATCC 29212; for MBC: read-out: MBC; for MIC: read-out: MIC
Text: as §1, §2, §3

[16] = tested on: Streptococcuss pyogenes ATCC 19615; assay: Antibacterial MIC/MBC (broth microdilution); assay type: cell-based, Streptococcus pyogenes; details: Streptococcus pyogenes, ATCC19615, Streptococcuss pyogenes ATCC 19615; for MBC: read-out: MBC; for MIC: read-out: MIC
Text: as §1, §2, §3

Work on CCN(CC)CCNC(=O)CC[C@@H](C)[C@H]1CC[C@H]2[C@@H]3CC[C@@H]4C[C@H](O)CC[C@]4(C)[C@H]3C[C@H](O)[C@]12C [Compound 6, (R)—N-(2-(diethylamino)ethyl)-4-((3R,5R,8R,9S,10S,12S,13R,14S,17R)-3,12-dihydroxy-10,13-dimethylhexadecahydro-1H-cyclopenta[a]phenanthren-17-yl)pentanamide] yielded an MBC [1] of over 64 µg/mL, an MIC [1] of over 64 µg/mL and an MBC [2] of over 64 µg/mL. The MIC [2] was over 64 µg/mL, the MBC [3] was over 64 µg/mL and the MIC [3] was over 64 µg/mL. For the same molecule, the “antibacterial activity (in words)” value ([4]; A. baumannii ATCC 19606) was “displayed an inhibitory effect”, the MBC [4] was 64 µg/mL (≈ 130 µM) and the MIC [4] was 64 µg/mL (≈ 130 µM). For the same molecule, the “antibacterial activity (in words)” value ([5]; Listonella anguilarum) was “active”, the MBC [5] was 64 µg/mL (≈ 130 µM) and the MIC [5] was 64 µg/mL (≈ 130 µM). The MBC [6] was 64 µg/mL (≈ 130 µM), the MIC [6] was 64 µg/mL (≈ 130 µM) and the MBC [7] was over 64 µg/mL. It also gave an MIC [7] of over 64 µg/mL, an MBC [8] of over 64 µg/mL and an MIC [8] of over 64 µg/mL. For the same molecule, the MBC [9] was over 64 µg/mL, the MIC [9] was over 64 µg/mL and the MBC [10] was over 64 µg/mL. For the same molecule, the MIC [10] was over 64 µg/mL, the MBC [11] was over 64 µg/mL and the MIC [11] was over 64 µg/mL. The “Inhibition zone diameter (disk diffusion)” value (“Inhibition zone diameter” for short) [12] was 10 mm, the MBC [13] was 64 µg/mL (≈ 130 µM) and the MIC [13] was 64 µg/mL (≈ 130 µM). The MBC [14] was over 64 µg/mL, the MIC [14] was over 64 µg/mL and the “antibacterial activity (in words)” value ([15]; E. faecalis ATCC 29212) was “exhibited antimicrobial activity”. For the same molecule, the MBC [15] was 64 µg/mL (≈ 130 µM), the MIC [15] was 64 µg/mL (≈ 130 µM) and the MBC [16] was over 64 µg/mL. It also gave an MIC [16] of over 64 µg/mL.

C[C@H](CCC(=O)NCCNc1ccccc1)[C@H]1CC[C@H]2[C@@H]3CC[C@@H]4C[C@H](O)CC[C@]4(C)[C@H]3C[C@H](O)[C@]12C [Compound 8, (R)-4-((3R,5R,8R,9S,10S,12S,13R,14S,17R)-3,12-dihydroxy-10,13-dimethylhexadecahydro-1H-cyclopenta[a]phenanthren-17-yl)-N-(2-(phenylamino)ethyl)pentanamide] gave an MBC [1] of over 64 µg/mL, an MIC [1] of over 64 µg/mL and an MBC [2] of over 64 µg/mL. For the same molecule, the MIC [2] was over 64 µg/mL, the MBC [3] was over 64 µg/mL and the MIC [3] was over 64 µg/mL. For the same molecule, the MBC [4] was over 64 µg/mL, the MIC [4] was over 64 µg/mL and the MBC [5] was over 64 µg/mL. It also gave an MIC [5] of over 64 µg/mL, an MBC [6] of over 64 µg/mL and an MIC [6] of 16 µg/mL (≈ 31.3 µM). For the same molecule, the MBC [7] was over 64 µg/mL, the MIC [7] was over 64 µg/mL and the MBC [8] was over 64 µg/mL. For the same molecule, the MIC [8] was over 64 µg/mL, the MBC [9] was over 64 µg/mL and the MIC [9] was over 64 µg/mL. For the same molecule, the MBC [10] was over 64 µg/mL, the MIC [10] was over 64 µg/mL and the MBC [11] was over 64 µg/mL. The MIC [11] was over 64 µg/mL, the “Inhibition zone diameter” value [12] was 12 mm and the MBC [13] was over 64 µg/mL. It also gave an MIC [13] of over 64 µg/mL, an MBC [14] of over 64 µg/mL and an MIC [14] of over 64 µg/mL. The MBC [15] was over 64 µg/mL, the MIC [15] was over 64 µg/mL and the MBC [16] was over 64 µg/mL. It also gave an MIC [16] of over 64 µg/mL.

Molecule C[C@H](CCC(=O)N1CCOCC1)[C@H]1CC[C@H]2[C@@H]3CC[C@@H]4C[C@H](O)CC[C@]4(C)[C@H]3C[C@H](O)[C@]12C [Compound 3, (R)-4-((3R,5R,8R,9S,10S,12S,13R,14S,17R)-3,12-dihydroxy-10,13-dimethylhexadecahydro-1H-cyclopenta[a]phenanthren-17-yl)-1-morpholinopentan-1-one] has an MBC [1] of over 64 µg/mL, an MIC [1] of over 64 µg/mL and an MBC [2] of over 64 µg/mL. For the same molecule, the MIC [2] was over 64 µg/mL, the MBC [3] was over 64 µg/mL and the MIC [3] was over 64 µg/mL. For the same molecule, the MBC [4] was over 64 µg/mL, the MIC [4] was over 64 µg/mL and the MBC [5] was over 64 µg/mL. The MIC [5] was over 64 µg/mL, the MBC [6] was over 64 µg/mL and the MIC [6] was over 64 µg/mL. The MBC [7] was over 64 µg/mL, the MIC [7] was over 64 µg/mL and the MBC [8] was over 64 µg/mL. The MIC [8] was over 64 µg/mL, the MBC [9] was over 64 µg/mL and the MIC [9] was over 64 µg/mL. The MBC [10] was over 64 µg/mL, the MIC [10] was over 64 µg/mL and the MBC [11] was over 64 µg/mL. The MIC [11] was over 64 µg/mL, the “Inhibition zone diameter” value [12] was 10 mm and the MBC [13] was over 64 µg/mL. For the same molecule, the MIC [13] was over 64 µg/mL, the MBC [14] was over 64 µg/mL and the MIC [14] was over 64 µg/mL. It also gave an MBC [15] of over 64 µg/mL, an MIC [15] of over 64 µg/mL and an MBC [16] of over 64 µg/mL. The MIC [16] was over 64 µg/mL.
